# pIC50, pKi: −log10 of the molar value. *1 amine or outer side, *2 acyl side, *3 side chain or, on linkers, in order; H or OH if unused. Where a SMILES comes first, the peptide text is derived from it. Bridges are numbered along the chain shown (N, C = ends). [ ]: non-standard residue; d: D form. The star is where a group is joined. DOTA = O=C(O)CN1CCN(CC(=O)O)CCN(CC(=O)*)CCN(CC(=O)O)CC1; N(2-mercaptoethyl)Gly = O=C(CN(CCS[*:3])[*:1])[*:2]
# Tests used:
# insulin release = test: Glucose induced insulin release in rats; assay type: in vivo, Wistar rats; settings: S.C. 100-1000 microgram/kg, glucose stimulation
# Description: (§1) In vivo determination of the pharmacodynamic properties of SSTR3 analogs was carried out in rats, according to known procedures (Afargan M. et al., 2001, Pless J. et al 1986).
# (§2) Adult male Wistar rats weighing 200-220 g, were maintained on a constant light-dark cycle (light from 8:00 to 20:00 h), temperature (21±3° C.), and relative humidity (55±10%). Laboratory chow and tap water were available ad libitum. All animals in the study were fasted overnight, animals were placed in cages with metal mesh to prevent coprophagia with free access to water. On the day of the experiment, rats were anesthetized with Nembutal (IP, 60 mg/kg). Ten minutes after anesthesia, drugs were administrated S.C. at 100-1000 microgram/kg dose. At 10 minutes after drugs administration the stimulation of GH and glucagon release were carried out by i.v. bolus administration of 0.5 g/kg L-arginine, stimulation of insulin release was carried out in separate animal groups that received i.v. bolus of 0.5 g/kg of glucose. Terminal blood samples in EDTA were collected at 5 minutes after stimulation. Blood samples were and centrifuged immediately. Plasma was separated and kept frozen at −20° C. until assayed.
# (§3) Rat growth hormone (rGH), glucagon and insulin levels were determined by commercial ELISA kits using the Millipore ELISA kits (Billerica, MA, USA). The ELISA kit for rat plasma GH, Millipore, Cat. No. EZRMGH-45K was performed according to the validated detection method of colorimetric sandwich ELISA protocol (Supriya S. et al., 2013). The ELISA kit for rat plasma insulin, Millipore Cat. No. MMEZRMI13K (Merck) was performed according to the validated detection method of fluorescent colorimetric protocol (Xu, P.Z. et al., 2012). The ELISA kit for rat plasma glucagon, Millipore, Cat. No. EZGLU-35 was performed according to the validated detection method of chemiluminescent sandwich ELISA protocol (Soyeon Y. et al., 2021).
# (§4) Data analysis of rat plasma GH, glucagon and insulin levels was evaluated by the averaged plasma hormones levels of each group. […] Results are expressed as the mean±SEM.
# SSTR3 [1] = target: T1, SSTR3 (Homo sapiens, UniProt P32745); test: β-Arrestin mediated receptor internalization (PathHunter), transfected CHO cells; assay type: cell-based; parameters: host or cells: CHO cells
# T1 sequence (P32745 whole entry, the tested form may be a part): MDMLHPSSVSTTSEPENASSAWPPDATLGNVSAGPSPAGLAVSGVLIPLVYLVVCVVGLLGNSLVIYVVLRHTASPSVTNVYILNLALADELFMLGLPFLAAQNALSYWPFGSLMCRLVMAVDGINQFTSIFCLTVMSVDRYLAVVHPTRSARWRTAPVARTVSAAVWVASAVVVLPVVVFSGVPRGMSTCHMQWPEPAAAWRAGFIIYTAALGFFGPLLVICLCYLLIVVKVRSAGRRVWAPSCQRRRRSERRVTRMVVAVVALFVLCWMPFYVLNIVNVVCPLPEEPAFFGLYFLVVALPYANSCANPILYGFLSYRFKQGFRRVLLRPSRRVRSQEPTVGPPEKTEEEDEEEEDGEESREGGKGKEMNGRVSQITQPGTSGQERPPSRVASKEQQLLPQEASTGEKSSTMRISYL
# Description: (§5) The assays were performed utilizing the PathHunter beta-arrestin enzyme fragment complementation (EFC) technology by Eurofins (CA, USA).
# (§6) Cell Handling: 1. PathHunter cell lines were expanded from freezer stocks according to standard procedures. 2. Cells were seeded in a total volume of 20 μL into white walled, 384-well microplates and incubated at 37° C. for the appropriate time prior to testing. Agonist Format: 1. For agonist determination, cells were incubated with sample to induce response. 2. Intermediate dilution of sample stocks was performed to generate 5× sample in assay buffer. 3. 5 μL of 5× sample was added to cells and incubated at 37° C. or room temperature for 90 or 180 minutes. Final assay vehicle concentration was 1%. […] Microplates were read following signal generation with a PerkinElmer Envision™ instrument for chemiluminescent signal detection. Data Analysi: Compound activity was analyzed using CBIS data analysis suite (ChemInnovation, CA). […] For agonist mode assays, percentage activity was calculated using the following formula: % Activity=100%×(mean RLU of test sample−mean RLU of vehicle control)/(mean MAX control ligand−mean RLU of vehicle control). […] For antagonist mode assays, percentage inhibition was calculated using the following formula: % Inhibition =100%×(1−(mean RLU of test sample−mean RLU of vehicle control)/(mean RLU of EC80 control−mean RLU of vehicle control)). […]
# SSTR5 = SSTR5 (Homo sapiens, UniProt P35346); test: Radioligand binding, displacement of 125I-Tyr11-SRIF-14; parameters: host or cells: Chem-1 (Rat ChemiSCREEN) cells, membrane preparation; settings: hSSTR-5; for pIC50: read-out: IC50
# Sequence of SSTR5 (P35346 whole entry): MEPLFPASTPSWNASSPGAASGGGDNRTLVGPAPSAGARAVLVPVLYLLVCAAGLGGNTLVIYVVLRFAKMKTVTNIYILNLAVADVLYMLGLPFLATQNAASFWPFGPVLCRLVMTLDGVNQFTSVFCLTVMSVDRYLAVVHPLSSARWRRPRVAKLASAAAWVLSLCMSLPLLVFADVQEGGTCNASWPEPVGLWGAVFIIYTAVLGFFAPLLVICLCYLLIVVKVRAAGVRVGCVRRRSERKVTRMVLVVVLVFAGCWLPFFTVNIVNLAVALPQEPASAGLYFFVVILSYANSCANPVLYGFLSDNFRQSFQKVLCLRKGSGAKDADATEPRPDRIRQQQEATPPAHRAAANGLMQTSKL
# Outline: (§7)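 Assays ran at 25 °C in 25 mM HEPES pH 7.4 with 5 mM MgCl2, 1 mM CaCl2, 0.1% BSA and 1% DMSO. Filter-bound radioactivity gave IC50 by nonlinear least-squares regression.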
# hSSTR-4 = target: T2, hSSTR-4 (Homo sapiens, UniProt P31391); test: as above; settings: hSSTR-4; for pIC50: read-out: IC50
# T2 construct: host or cells: Chem-1 (Rat ChemiSCREEN) cells, membrane preparation
# T2 sequence (P31391 whole entry): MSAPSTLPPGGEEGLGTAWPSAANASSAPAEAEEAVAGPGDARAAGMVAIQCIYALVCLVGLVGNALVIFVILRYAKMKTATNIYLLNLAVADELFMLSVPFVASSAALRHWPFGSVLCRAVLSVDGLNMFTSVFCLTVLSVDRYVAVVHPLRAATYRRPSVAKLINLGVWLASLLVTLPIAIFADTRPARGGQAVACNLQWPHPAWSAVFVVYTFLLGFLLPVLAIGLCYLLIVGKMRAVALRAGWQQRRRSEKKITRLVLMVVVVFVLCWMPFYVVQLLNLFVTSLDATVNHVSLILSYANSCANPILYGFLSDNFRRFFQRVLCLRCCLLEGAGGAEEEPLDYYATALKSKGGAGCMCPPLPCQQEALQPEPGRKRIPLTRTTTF
# Outline: as §7
# GH release = test: L-arginine induced GH release in rats; assay type: in vivo, Wistar rats; settings: S.C. 100-1000 microgram/kg, L-arginine stimulation
# Description: as §1
# Inhibition of GH release as a result of peptide administration was measured in Wistar male rats.
# as §2
# as §3, with “The ELISA kit for rat plasma glucagon, Millipore, Cat. No. EZGLU-35 was performed according to the validated detection method of chemiluminescent sandwich ELISA protocol (Soyeon Y. et al., 2021).” left out
# as §4
# SSTR3 [2] = target: T1, SSTR3; test: Radioligand binding, displacement of 125I-Tyr11-SRIF-14; parameters: host or cells: CHO (Chinese Hamster Ovary) cells, membrane preparation; settings: for affinity and selectivity to SSTR3 (in words): binding data; for Hill coefficient (nH) / pKi / pIC50: hSSTR-3; for pKi: Cheng and Prusoff, read-out: Ki; for pIC50: read-out: IC50
# Outline: as §7
# SSTR1 = SSTR1 (Homo sapiens, UniProt P30872); test: as above; parameters: host or cells: CHO (Chinese Hamster Ovary) cells, membrane preparation; settings: hSSTR-1; for pIC50: read-out: IC50
# Sequence of SSTR1 (P30872 whole entry): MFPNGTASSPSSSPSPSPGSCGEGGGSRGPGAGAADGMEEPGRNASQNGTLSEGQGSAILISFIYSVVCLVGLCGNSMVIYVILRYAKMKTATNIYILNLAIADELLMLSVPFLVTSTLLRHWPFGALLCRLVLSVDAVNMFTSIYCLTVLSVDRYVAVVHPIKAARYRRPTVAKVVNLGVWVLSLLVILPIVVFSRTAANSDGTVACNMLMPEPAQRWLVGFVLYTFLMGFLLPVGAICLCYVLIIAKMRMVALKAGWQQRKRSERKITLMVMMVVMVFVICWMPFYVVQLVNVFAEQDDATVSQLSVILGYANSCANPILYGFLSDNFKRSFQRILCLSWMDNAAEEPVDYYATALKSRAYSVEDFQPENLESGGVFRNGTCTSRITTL
# Outline: as §7
# SSTR2 [3] = target: T3, SSTR2 (Homo sapiens, UniProt P30874); test: as above; parameters: host or cells: CHO (Chinese Hamster Ovary) cells, membrane preparation; settings: hSSTR-2; for pIC50: read-out: IC50
# T3 sequence (P30874 whole entry): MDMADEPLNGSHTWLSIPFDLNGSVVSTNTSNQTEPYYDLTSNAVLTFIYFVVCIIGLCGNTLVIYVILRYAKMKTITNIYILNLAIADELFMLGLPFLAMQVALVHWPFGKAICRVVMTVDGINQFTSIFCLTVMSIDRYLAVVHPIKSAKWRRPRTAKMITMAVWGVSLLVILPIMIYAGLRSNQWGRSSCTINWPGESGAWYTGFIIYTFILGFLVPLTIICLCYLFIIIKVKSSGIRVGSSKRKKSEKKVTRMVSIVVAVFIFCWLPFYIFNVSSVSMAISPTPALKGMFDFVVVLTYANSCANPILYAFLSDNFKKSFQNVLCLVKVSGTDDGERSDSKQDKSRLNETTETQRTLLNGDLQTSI
# Outline: as §7
# [4] = Physicochemical studies of surface activity; settings: nonspecific binding
# [5] = tested on: Desmoplastic Small Round Cell Tumor with SSTR3 expression; assay type: in vivo, human
# Description: In this example, the safety, biodistribution, imaging performance and tumor uptake in patient with sarcoma type DSRCT tumor positive SSTR3 expression was evaluated. Following radiolabeling of the title compound, the eluted solution of the radiolabel tracer was filtered for sterility and injected intravenously in isotonic solution. PET-CT scan was performed at 30- and 120-minutes post injection of the radiolabeled tracer at approximately 600 Mbq. Body temperature, heart rate, and blood pressure were monitored before during and after the PET-CT scan for safety evaluation. The patient was a person, diagnosed for DSRCT 8 years prior. Over the last 8 years, before the current example, the patient was treated with External beam radiation therapy (EBRT), chemotherapy (Irinotecan/temozolomide, melphalan/treosuflan, gemcitabine/docetaxel, pazopanib, topotecan/cyclophosphamide, cabozantinib, densumab), and laminectomy (to resect spine—tumoral foci). A biopsy analysis was performed 3 months before the PET-CT and indicated high mRNA expression of SSTR3.
# [6] = tested on: Xenograft of SSTR3 transfected HEK-293 cells; test: in vivo; settings: rat
# Description: (§8) In this example, imaging performance, biodistribution and tumor uptake of SSTR3 selective radioligands in rodents bearing xenografts of transfected SSTR3 cells was determined using the following method: Animal handling was conducted in accordance with the European Council Directive 2010/63/UE. All experimental procedures were approved by the Institutional Ethical Committee and local authorities. For biodistribution studies, female nude nu/nu Balb/c mice or nude nu/nu rats (Charles River) were used. Dynamic PET-CT imaging experiments were performed up to 240 minutes in mice and up to 270 minutes in rats, under isoflurane anesthesia following the intravenous injection of the radiolabeled tracers. All experiments were performed during the light phase of the light—dark cycle. Biodistribution was determined by quantitative analysis of the PET-CT scan and calculated as % percentage of […] of the total injected dose (%ID/g) or by the value of SUV which is the ratio of the image-derived radioactivity concentration Cimg and the whole-body concentration of the injected radioactivity Cinj.
# in vivo = settings: iv, total radioactivity
# Description: as §8
# SSTR2 [7] = target: T3, SSTR2; test: β-Arrestin mediated receptor internalization (PathHunter), transfected CHO cells; assay type: cell-based; settings: SSTR2 transfected cells
# Description: as §5, §6
# [8] = Cheng and Prusoff, read-out: Ki
# [9] = female, nude nu/nu Balb/c, mouse, Kidneys % ID/cm^3
# [10] = female, nude nu/nu Balb/c, mouse, Tumor % ID/cm^3
compound,measurement,setting,value
"C[C@@H](O)[C@@H]1NC(=O)[C@H](CCCCN)NC(=O)[C@@H](Cc2c[nH]c3ccccc23)NC(=O)[C@H](Cc2ccccc2)NC(=O)[C@@H](NC(=O)[C@H](CCCNC(=N)N)NC(=O)[C@H](N)Cc2ccccc2)CSSCCN(CC(N)=O)C(=O)[C@H](Cc2ccccc2)NC1=O [SEQ ID NO: 1, H-D-Phe^1-Arg^2-Cys^3-Phe^4-D-Trp^5-Lys^6-Thr^7-Phe^8-NTEG^9-NH^2 (cyclo 3-9)] (H-[dF]RCF[dW]KTF[N(2-mercaptoethyl)Gly]-NH2; disulfide 3-9)",effect on insulin release,insulin release,did not affect insulin release
same,agonistic activity profile at SSTR3 (in words),SSTR3 [1],superagonistic activity profile of SSTR3 above the native hormone SRIF-14
same,Hill coefficient (nH),SSTR5,1.2
same,pKi,SSTR5; [8],6.77
same,pIC50,SSTR5,6.51
same,Hill coefficient (nH),hSSTR-4,1.24
same,pKi,hSSTR-4; [8],< 6.00
same,pIC50,hSSTR-4,< 6.00
same,inhibition of GH release,GH release; listed as SEQ ID NO.1,potent inhibitors of pituitary GH release
same,inhibition of GH release,GH release; listed as SEQ ID NO:1,potent anti-secretagogue of growth hormone secretion
same,affinity and selectivity to SSTR3 (in words),SSTR3 [2],high affinity and selectivity to human cloned SSTR3 in the nanomolar range
same,Hill coefficient (nH),SSTR3 [2],1.28
same,pKi,SSTR3 [2],9.82
same,pIC50,SSTR3 [2],9.37
same,Hill coefficient (nH),SSTR1,0.74
same,pKi,SSTR1; [8],6.82
same,pIC50,SSTR1,6.74
same,Hill coefficient (nH),SSTR2 [3],1.25
same,pKi,SSTR2 [3]; [8],6.49
same,pIC50,SSTR2 [3],6.41
"C[C@@H](O)[C@@H]1NC(=O)[C@H](CCCCN)NC(=O)[C@@H](Cc2c[nH]c3ccccc23)NC(=O)[C@H](Cc2ccccc2)NC(=O)[C@@H](NC(=O)[C@H](CCCCN)NC(=O)[C@H](N)Cc2ccccc2)CSSCCN(CC(N)=O)C(=O)[C@H](Cc2ccccc2)NC1=O [SEQ ID NO: 2, H-D-Phe^1-Lys^2-Cys^3-Phe^4-D-Trp^5-Lys^6-Thr^7-Phe^8-NTEG^9-NH2 (cyclo 3-9)] (H-[dF]KCF[dW]KTF[N(2-mercaptoethyl)Gly]-NH2; disulfide 3-9)",effect on insulin release,insulin release,did not affect insulin release
same,surface activity profile,[4],favorable surface activity profile by means of reduced nonspecific binding
same,pIC50,SSTR5,< 6.30
same,pIC50,hSSTR-4,< 6.00
same,inhibition of GH release,GH release,potent inhibitors of pituitary GH release
same,affinity and selectivity to SSTR3 (in words),SSTR3 [2],retained the binding affinity and selectivity to SSTR3
same,Hill coefficient (nH),SSTR3 [2],1.09
same,pKi,SSTR3 [2],9.60
same,pIC50,SSTR3 [2],9.14
same,pIC50,SSTR1,< 7.00
same,pIC50,SSTR2 [3],< 6.30
"C[C@@H](O)[C@@H]1NC(=O)[C@H](CCCCN)NC(=O)[C@@H](Cc2c[nH]c3ccccc23)NC(=O)[C@H](Cc2ccccc2)NC(=O)[C@@H](NC(=O)[C@H](CCCNC(=N)N)NC(=O)[C@@H](Cc2ccccc2)NC(=O)CN2CCN(CC(=O)O)CCN(CC(=O)O)CCN(CC(=O)O)CC2)CSSCCN(CC(N)=O)C(=O)[C@H](Cc2ccccc2)NC1=O [^68Ga -SEQ ID NO: 4, metal not drawn] ({DOTA}-[dF]RCF[dW]KTF[N(2-mercaptoethyl)Gly]-NH2; disulfide 3-9)",safety evaluations,"[5]; human, in vivo",no abnormal toxicity signs
same,uptake in off-target organs,"[5]; human, in vivo",no uptake in off-target organs
same,elimination of the tracer,"[5]; human, in vivo, iv",rapid elimination of the tracer was observed from the blood to the kidneys
same,tumor uptake (radioactive foci),"[5]; patient with DSRCT, FIG. 9","several radioactive foci were detected in the lung, neck and pelvic regions"
same,tumor uptake above the kidneys (tumor/kidneys),[6],approximately 50%
same,Kidneys SUV,[6]; iv,7.6
same,Tumor SUV,[6]; iv,11.0
same,tissue uptake per volume at 2.5 h,in vivo; [9],6 %ID/mL
same,tissue uptake per volume at 4 h,in vivo; [9],6.6 %ID/mL
same,tissue uptake per volume at 2.5 h,in vivo; [10],9.6 %ID/mL
same,tissue uptake per volume at 4 h,in vivo; [10],12.3 %ID/mL
same,tissue uptake per volume at 2.5 h,"in vivo; nude nu/nu, rat, Kidneys % ID/cm^3",3.2 %ID/mL
same,tissue uptake per volume at 2.5 h,"in vivo; nude nu/nu, rat, Tumor % ID/cm^3",4.7 %ID/mL
SRIF-28,Efficacy - maximal response,SSTR2 [7],47480 RLU
same,Note,SSTR2 [7],Agonist
